Reference: patent US9556183B2, “Substituted pyrazolylpyrazole derivative and use of same as herbicide” (KYOYU AGRI CO., LTD., priority 2013, dated 2017)

Assays:
Assay type in all cases: in vivo
Echinochloa crus-galli = assay: Paddy herbicidal activity test; details: irrigated paddy pot, treated at 3.5 leaf stage of Echinochloa crus-galli, 30 days
Protocol: (§1) Rice paddy soil was filled into a 1/10000 are pot followed by the addition of suitable amounts of water and chemical fertilizer, kneading, seeding with Echinochloa crus-galli, Monochoria vaginalis and Scirpus juncoides and maintaining in an irrigated state at a water depth of 3 cm. Wettable powder of Target Compound (I) shown in Table 1 prepared in compliance with the preparation examples were diluted with a suitable amount of water, rice plants in the 2.0 leaf stage were transplanted during 3.5 leaf stage of Echinochloa crus-galli, and treated by dropping in chemical in the prescribed amount per are using a pipette. After treating for 30 days in a glass greenhouse at an average atmospheric temperature of 30° C., the herbicidal efficacy thereof was investigated. Evaluation of herbicidal efficacy was carried out by comparing growth inhibition rate (%) with an untreated group, while evaluation of phytotoxicity was carried out by comparing growth inhibition rate (%) with the state of a complete eradication group, and were evaluated at 11 levels indicated below. [table]

Monochoria vaginalis = assay: Paddy herbicidal activity test; details: irrigated paddy pot, 30 days
Protocol: as §1

Scirpus juncoides = assay: Paddy herbicidal activity test; details: irrigated paddy pot, 30 days
Protocol: as §1

Rice plants = assay: Paddy herbicidal activity test, phytotoxicity to transplanted rice; details: rice transplanted at 2.0 leaf stage, 30 days
Protocol: as §1

Amaranthus retroflexus [1] = assay: Farming soil treatment test; details: soil surface spray prior to weed growth, 30 days
Protocol: (§2) Evaluation of herbicidal efficacy was carried out by comparing growth inhibition rate (%) with an untreated group, while evaluation of phytotoxicity was carried out by comparing growth inhibition rate (%) with the state of a complete eradication group, and were evaluated at 11 levels indicated below. [table] Field soil was filled into a 1/6000 are pot followed by seeding with Digitaria ciliaris, Chenopodium album and Amaranthus retroflexus and covering with soil. Wettable powder of compounds of formula (I) shown in Table 1 prepared in compliance with the preparation examples were diluted with water to the prescribed amount of chemical and uniformly sprayed onto each soil surface layer using 10 liters of sprayed water per are prior to weed growth following seeding. After treating for 30 days in a glass greenhouse at an average atmospheric temperature of 30° C., the herbicidal efficacy thereof was investigated. Evaluation of herbicidal efficacy was carried out in the same manner as the above-mentioned Test Example 1.

Chenopodium album [2] = assay: Farming soil treatment test; details: soil surface spray prior to weed growth, 30 days
Protocol: as §2

Digitaria ciliaris [3] = assay: Farming soil treatment test; details: soil surface spray prior to weed growth, 30 days
Protocol: as §2

Amaranthus retroflexus [4] = assay: Weed foliar treatment test; details: foliar spray, 3 weeks
Protocol: (§3) Evaluation of herbicidal efficacy was carried out by comparing growth inhibition rate (%) with an untreated group, while evaluation of phytotoxicity was carried out by comparing growth inhibition rate (%) with the state of a complete eradication group, and were evaluated at 11 levels indicated below. [table] Soil was filled into a 1/6000 are pot followed by seeding with Digitaria ciliaris, Chenopodium album and Amaranthus retroflexus, covering with soil, and cultivating in a glass greenhouse at an average atmospheric temperature of 25° C. Wettable powder of Target Compound (I) shown in Table 1 prepared in compliance with the preparation examples were diluted with water to the prescribed amount of chemical and uniformly sprayed onto the weeds using 15 liters of sprayed water per are when Digitaria ciliaris had grown to the 1.0 to 2.0 leaf stage. After treating for 3 weeks in a glass greenhouse at an average atmospheric temperature of 25° C., the herbicidal efficacy thereof was investigated, Evaluation of herbicidal efficacy was carried out in the same manner as the above-mentioned Test Example 1.

Chenopodium album [5] = assay: Weed foliar treatment test; details: foliar spray, 3 weeks
Protocol: as §3

Digitaria ciliaris [6] = assay: Weed foliar treatment test; details: foliar spray at 1.0 to 2.0 leaf stage of Digitaria ciliaris, 3 weeks
Protocol: as §3

Row | Compound | herbicidal efficacy (growth inhibition rate level) Echinochloa crus-galli (Echinochloa crus-galli; 1g a.i./10a) | herbicidal efficacy (growth inhibition rate level) Echinochloa crus-galli (Echinochloa crus-galli; 5g a.i./10a) | herbicidal efficacy (growth inhibition rate level) Monochoria vaginalis (Monochoria vaginalis; 1g a.i./10a) | herbicidal efficacy (growth inhibition rate level) Monochoria vaginalis (Monochoria vaginalis; 5g a.i./10a) | herbicidal efficacy (growth inhibition rate level) Scirpus juncoides (Scirpus juncoides; 1g a.i./10a) | herbicidal efficacy (growth inhibition rate level) Scirpus juncoides (Scirpus juncoides; 5g a.i./10a) | phytotoxicity (growth inhibition rate level) Rice plants (Rice plants; 1g a.i./10a) | phytotoxicity (growth inhibition rate level) Rice plants (Rice plants; 5g a.i./10a) | herbicidal efficacy (growth inhibition rate level) Amaranthus retroflexus (Amaranthus retroflexus [1]; 5g a.i./10a) | herbicidal efficacy (growth inhibition rate level) Amaranthus retroflexus (Amaranthus retroflexus [1]; 10g a.i./10a) | herbicidal efficacy (growth inhibition rate level) Chenopodium album (Chenopodium album [2]; 5g a.i./10a) | herbicidal efficacy (growth inhibition rate level) Chenopodium album (Chenopodium album [2]; 10g a.i./10a) | herbicidal efficacy (growth inhibition rate level) Digitaria ciliaris (Digitaria ciliaris [3]; 5g a.i./10a) | herbicidal efficacy (growth inhibition rate level) Digitaria ciliaris (Digitaria ciliaris [3]; 10g a.i./10a) | herbicidal efficacy (growth inhibition rate level) Amaranthus retroflexus (Amaranthus retroflexus [4]; 5g a.i./10a) | herbicidal efficacy (growth inhibition rate level) Amaranthus retroflexus (Amaranthus retroflexus [4]; 10g a.i./10a) | herbicidal efficacy (growth inhibition rate level) Chenopodium album (Chenopodium album [5]; 5g a.i./10a) | herbicidal efficacy (growth inhibition rate level) Chenopodium album (Chenopodium album [5]; 10g a.i./10a) | herbicidal efficacy (growth inhibition rate level) Digitaria ciliaris (Digitaria ciliaris [6]; 5g a.i./10a) | herbicidal efficacy (growth inhibition rate level) Digitaria ciliaris (Digitaria ciliaris [6]; 10g a.i./10a)
1 | N#Cc1cnn(-c2nn3c(c2Br)CCCC3)c1NCC1CC1 [Compound 147] | 8 (8: 80% to less than 90%) | 9 (9: 90% to less than 100%) | 7 (7: 70% to less than 80%) | 8 (8: 80% to less than 90%) | 7 (7: 70% to less than 80%) | 9 (9: 90% to less than 100%) | 0 (0 (exponent): 0% to less than 10% (growth inhibition rate)) | 0 (0 (exponent): 0% to less than 10% (growth inhibition rate)) | 10 (10: 100%) | 10 (10: 100%) | 10 (10: 100%) | 10 (10: 100%) | 10 (10: 100%) | 10 (10: 100%) | 10 (10: 100%) | 10 (10: 100%) | 10 (10: 100%) | 10 (10: 100%) | 10 (10: 100%) | 10 (10: 100%)
2 | CC1CC1CNc1c(C#N)cnn1-c1nn2c(c1Cl)CCCC2 (stereo not shown) [Compound 12] | 9 (9: 90% to less than 100%) | 10 (10: 100%) | 8 (8: 80% to less than 90%) | 9 (9: 90% to less than 100%) | 9 (9: 90% to less than 100%) | 9 (9: 90% to less than 100%) | 0 (0 (exponent): 0% to less than 10% (growth inhibition rate)) | 1 (1: 10% to less than 20%) | 10 (10: 100%) | 10 (10: 100%) | 10 (10: 100%) | 10 (10: 100%) | 10 (10: 100%) | 10 (10: 100%) | 10 (10: 100%) | 10 (10: 100%) | 10 (10: 100%) | 10 (10: 100%) | 10 (10: 100%) | 10 (10: 100%)
3 | N#Cc1cnn(-c2nn3c(c2Cl)CCC3)c1NCC1CC1 [Compound 5] | 9 (9: 90% to less than 100%) | 10 (10: 100%) | 9 (9: 90% to less than 100%) | 9 (9: 90% to less than 100%) | 8 (8: 80% to less than 90%) | 9 (9: 90% to less than 100%) | 0 (0 (exponent): 0% to less than 10% (growth inhibition rate)) | 1 (1: 10% to less than 20%) |  |  |  |  |  |  |  |  |  |  |  | 
4 | CC1(CNc2c(C#N)cnn2-c2nn3c(c2Cl)CCCC3)CC1 [Compound 4] | 9 (9: 90% to less than 100%) | 10 (10: 100%) | 9 (9: 90% to less than 100%) | 9 (9: 90% to less than 100%) | 8 (8: 80% to less than 90%) | 8 (8: 80% to less than 90%) | 0 (0 (exponent): 0% to less than 10% (growth inhibition rate)) | 1 (1: 10% to less than 20%) |  |  |  |  |  |  |  |  |  |  |  | 
5 | N#Cc1cnn(-c2nn3c(c2Cl)CCC3)c1N(CC1CC1)C(=O)C(F)(F)F [Compound 6] | 9 (9: 90% to less than 100%) | 9 (9: 90% to less than 100%) | 8 (8: 80% to less than 90%) | 9 (9: 90% to less than 100%) | 7 (7: 70% to less than 80%) | 8 (8: 80% to less than 90%) | 0 (0 (exponent): 0% to less than 10% (growth inhibition rate)) | 0 (0 (exponent): 0% to less than 10% (growth inhibition rate)) |  |  |  |  |  |  |  |  |  |  |  | 
